Source: US6281218A, “Benzimidazolone derivatives having mixed serotonin and dopamine receptors affinity” (Ingelheim Italia S.p.A., priority 1999, dated 2001)

How the values were obtained:
D4 receptor = molecular target: T1, D4 receptor (Homo sapiens, UniProt P21917); assay: D4 receptor binding, [3H]-YM 09151-2 displacement; conditions: CHO cell membranes, read-out: K1 (nM) for D4 (CHO cell membranes)
T1 construct: expressed in transfected cells; host or cells: CHO cells
T1 sequence (P21917 1-419): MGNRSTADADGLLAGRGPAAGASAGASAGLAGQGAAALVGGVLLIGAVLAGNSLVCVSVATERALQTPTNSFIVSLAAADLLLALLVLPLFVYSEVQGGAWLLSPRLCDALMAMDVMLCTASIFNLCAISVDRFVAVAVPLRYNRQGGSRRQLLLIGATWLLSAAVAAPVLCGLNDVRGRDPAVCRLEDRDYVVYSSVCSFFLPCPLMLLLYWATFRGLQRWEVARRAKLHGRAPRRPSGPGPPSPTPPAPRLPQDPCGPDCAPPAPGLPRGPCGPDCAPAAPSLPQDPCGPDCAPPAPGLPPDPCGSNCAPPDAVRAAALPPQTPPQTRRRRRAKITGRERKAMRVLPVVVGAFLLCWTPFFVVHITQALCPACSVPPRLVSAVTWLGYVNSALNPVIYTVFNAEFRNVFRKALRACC
Experimental: Cells were grown in monolayer at 37° C. in 95% air/5% CO2 in Dulbecco's Modified Eagle Medium (DMEM) supplemented with 7.5% (v/v) heat-inactivated fetal bovine serum (FBS), 2.5% (v/v) heat-inactivated horse serum donor herd, 2% of a stock solution containing 5000 I.U./ml penicillin and 5000 μg/ml streptomycin, 1% (v/v) of a solution MEM containing non-essential amino acid, 2 mM glutamine ind 200 μg/ml geneticin. Cells were passaged twice a week using a trypsin/EDTA solution and the split rate was 1:4. Cells were not subcultured more than 17 times.
Preparation of cell membranes:
The cells grown to confluence were washed twice with Dulbecco's PBS buffer and were detached adding VERSENE (PBS containing 0.2 g/l EDTA) for 10 minutes at 37° C. The cell suspension was centrifuged at 1,000 rpm for 10 minutes and the pellet was harvested in DMEM with 10% DMSO and stored at -80° C. Before use, cells were thawed, centrifuged at 1,000 rpm for 10 minutes and the pellet was resuspended in PBS. The cells were centrifuged again at 270×g for 10 minutes at 4° C. and the pellet was resuspended in a lysis buffer (10 mM Tris-HCl pH 7.4, 5 mM Na2 EDTA and protease inhibitors) and incubated for 30 minutes on ice. Cells were homogenized with an Ultra Turrax homogenizer. Unbroken cells and nuclei were removed by an initial centrifugation at 270×g for 10 minutes at 4° C. and crude membranes were collected from the supernatant by a 60 minute spin at 130,000×g. The pelleted membranes were resuspended in the same lysis buffer with 20 strokes by a Potter homogenizer. The final cell membrane suspension, corresponding to about 1×10^7 original cells/ml, was aliquoted and immediately frozen at -80° C.
D4 receptor binding studies were carried out in membranes from CHO cells prepared as above. The membranes were dilute in incubation buffer (50 ml/ TRIS-HCl pH 7.4, 5 mM MgCl2·6H2 O, 5 mM KCl, 1.5 mM CaCl2·2H2 O, 5 mM EDTA) according to their receptor density.
Displacement experiment were performed in 1000 μl total volume incubating the membranes (980 μl) in the presence of [^3 H]-YM 09151-2 (10 μl; 0.15-0.25 nM) and different concentrations of the test compounds dissolved in DMISO (10 μl) at 27° C. for two hours. Nonspecific binding was determined in the presence of 10 μM of Clozapine (10 μl). The reaction was stopped by rapid filtration through Inotech IH 201 filters (pre-soaked in 0.1% polyethyleneimine) using an Inotech Cell Harvester. The radioactivity was counted by liquid scintillation spectrometry.
(§1) The affinity values (Ki) for the compounds were obtained by a nonlinear least squares regression analysis on the basis of a one binding site model. The values were corrected on the basis of the radioligand occupancy on the receptors according to the equation: Ki =IC50 /(1+[C]/Kd), where [C] and Kd represent the concentration and the dissociation constant of the used radioligands ([^3 H]-8-OH-DPAT for the 5-HT1A binding, [^3 H]-Ketanserine for the 5-HT2A binding and [^3 H]-YM 09151-2) for the D4 binding, respectively).

5-HT1A receptor = molecular target: T2, 5-HT1A receptor (Rattus norvegicus, UniProt P19327); assay: 5-HT1A receptor binding, [3H]-8-OH-DPAT displacement; conditions: rat hippocampus tissue, read-out: K1 (nM) for 5-HT1A (rat hippocampus tissue)
T2 construct: from tissue; host or cells: rat hippocampus (male Sprague-Dawley)
T2 sequence (P19327 1-422): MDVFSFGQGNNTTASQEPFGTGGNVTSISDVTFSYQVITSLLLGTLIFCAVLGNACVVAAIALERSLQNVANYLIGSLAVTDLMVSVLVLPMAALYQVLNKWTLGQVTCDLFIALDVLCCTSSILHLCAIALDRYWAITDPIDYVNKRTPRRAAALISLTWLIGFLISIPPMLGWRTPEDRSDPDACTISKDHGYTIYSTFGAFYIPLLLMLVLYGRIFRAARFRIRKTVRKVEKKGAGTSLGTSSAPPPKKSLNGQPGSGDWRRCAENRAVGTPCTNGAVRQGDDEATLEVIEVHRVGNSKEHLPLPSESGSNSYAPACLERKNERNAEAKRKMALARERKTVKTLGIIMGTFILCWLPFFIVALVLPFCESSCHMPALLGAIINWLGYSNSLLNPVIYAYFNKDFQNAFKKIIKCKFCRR
Experimental: Male Sprague-Dawley rats (200-250 g) were used. The hippocampus taken from these animals was homogenized in 10 volumes of ice cold 50 mM TIUS buffer (pH 7.4). The homogenate was diluted 1:400 (w:v) in the same buffer to have a final protein concentration of about 200 μg/ml, filtered and incubated at 37° C. for 10 minutes before use.
Displacement experiments were performed by incubating the homogenate (980 μl) in the presence of [^3 H]-8-OH-DPAT (10 μl; 1.0-1.2 nM) and different concentrations of the test compounds dissolved in DMSO (10 μl), at 30° C. for 15 minutes (final volume: 1 ml). Nonspecific binding was determined in the presence of 10 μM 5-HT (10 μl). The reaction was stopped by rapid filtration through Inotech IH 201 filters using an Inotech Cell Harvester. The radioactivity was counted by liquid scintillation spectrometry.
as §1

5-HT2A receptor = molecular target: T3, 5-HT2A receptor (Rattus norvegicus, UniProt P14842); assay: 5-HT2A receptor binding, [3H]-Ketanserine displacement; conditions: rat cortex tissue, read-out: K1 (nM) for 5-HT2A (Rat cortex tissue)
T3 construct: Cerebral cortex was homogenized in 10 volumes of ice cold 0.32 M sucrose; from tissue; host or cells: rat cerebral cortex (male Sprague-Dawley)
Experimental: Male Sprague-Dawley rats (200-250 g) were used. Cerebral cortex was homogenized in 10 volumes of ice cold 0.32 M sucrose. After the centrifugation of the homogenate (1,000×g for 10 minutes) the supernatant was then recentrifuged at 48,000×g for 15 minutes. The resulting pellet was suspended in 10 volumes of 50 mM TRIS buffer (pH 7.4), incubated at 37° C. for 10 minutes and recentrifuged at 48,000 × g for 15 minutes. The residue was then resuspended in 10 volumes of 50 mM TRIS buffer (pH 7.4).
The tissue was diluted 1:100 (w:v) in 50 mM TRIS buffer (pH 7.4) to have a final concentration of about 200 μg/ml. Displacement experiments were performed by incubating the homogenate (980 μl) in the presence of [^3 H]-Ketanserine (10 μl; 0.5-0.6 nM) and different concentrations of the test compounds dissolved in DMSO (10 μl) at 37° C. for 10 minutes (final volume: 1 ml). Nonspecific binding was determined in the presence of 100 μM Methysergide (10 μl). The reaction was stopped by rapid filtration through Inotech IH 201 filters using an Inotech Cell Harvester. The radioactivity was counted by liquid scintillation spectrometry.
as §1

T3 sequence (P14842 whole entry): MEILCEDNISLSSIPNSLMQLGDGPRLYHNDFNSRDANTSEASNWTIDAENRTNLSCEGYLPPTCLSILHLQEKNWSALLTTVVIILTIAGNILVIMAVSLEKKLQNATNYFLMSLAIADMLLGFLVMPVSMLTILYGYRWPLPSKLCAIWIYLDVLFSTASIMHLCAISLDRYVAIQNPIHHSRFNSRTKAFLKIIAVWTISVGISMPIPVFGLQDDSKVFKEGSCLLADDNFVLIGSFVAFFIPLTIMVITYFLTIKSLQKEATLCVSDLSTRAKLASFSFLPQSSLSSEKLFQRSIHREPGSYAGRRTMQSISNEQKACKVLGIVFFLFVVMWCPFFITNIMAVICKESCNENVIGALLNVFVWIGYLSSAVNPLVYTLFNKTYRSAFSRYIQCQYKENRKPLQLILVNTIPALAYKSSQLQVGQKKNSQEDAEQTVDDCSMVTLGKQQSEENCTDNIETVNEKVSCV

## O=c1[nH]c2cc(O)ccc2n1CCN1CCN(c2cccc(C(F)(F)F)c2)CC1 [Compound 1, 5-Hydroxy-1-{2-[4-(3-trifluoromethylphenyl)piperazin-1-yl]ethyl}-1,3-dihydro-benzimidazol-2-one]
D4 receptor
  Ki: 287 nM
5-HT1A receptor
  Ki: 40.8 nM
5-HT2A receptor
  Ki: 58.5 nM

## O=c1[nH]c2ccccc2n1CCN1CCN(c2ccc(O)c(C(F)(F)F)c2)CC1 [Compound 5, 1-{2-[4-(4-Hydroxy-3-trifluoromethylphenyl)piperazin-1-yl]ethyl}-1,3-dihydro-benzimidazol-2-one]
D4 receptor
  Ki: 17.8 nM
5-HT1A receptor
  Ki: 369 nM
5-HT2A receptor
  Ki: 705 nM

## O=c1[nH]c2ccccc2n1CCN1CCN(c2cc(O)cc(C(F)(F)F)c2)CC1 [Compound 6, 1-{2-[4-(3-Hydroxy-5-trifluoromethylphenyl)piperazin-1-yl]ethyl}-1,3-dihydro-benzimidazol-2-one]
D4 receptor
  Ki: 24.8 nM
5-HT1A receptor
  Ki: 156 nM
5-HT2A receptor
  Ki: 328 nM

## O=c1[nH]c2cccc(O)c2n1CCN1CCN(c2cccc(C(F)(F)F)c2)CC1 [Compound 4, 7-Hydroxy-1-{2-[4-(3-trifluoromethylphenyl)piperazin-1-yl]ethyl}-1,3-dihydro-benzimidazol-2-one]
D4 receptor
  Ki: 652 nM
5-HT1A receptor
  Ki: 1590 nM
5-HT2A receptor
  Ki: 23.8 nM

## O=c1[nH]c2c(O)cccc2n1CCN1CCN(c2cccc(C(F)(F)F)c2)CC1 [Compound 3, 4-Hydroxy-1-{2-[4-(3-trifluoromethylphenyl)piperazin-1-yl]ethyl}-1,3-dihydro-benzimidazol-2-one]
D4 receptor
  Ki: 33.9 nM
5-HT1A receptor
  Ki: 15.4 nM
5-HT2A receptor
  Ki: 43.8 nM

## O=c1[nH]c2ccccc2n1CCN1CCN(c2cc(C(F)(F)F)ccc2O)CC1 [Compound 7, 1-{2-[4-(2-Hydroxy-5-trifluoromethylphenyl)piperazin-1-yl]ethyl}-1,3-dihydro-benzimidazol-2-one]
5-HT1A receptor
  Ki: > 10000 nM
5-HT2A receptor
  Ki: 4440 nM

## O=c1[nH]c2ccc(O)cc2n1CCN1CCN(c2cccc(C(F)(F)F)c2)CC1 [Compound 2, 6-Hydroxy-1-{2-[4-(3-trifluoromethylphenyl)piperazin-1-yl]ethyl}-1,3-dihydro-benzimidazol-2-one]
D4 receptor
  Ki: 804 nM
5-HT1A receptor
  Ki: 333 nM
5-HT2A receptor
  Ki: 33.8 nM
